The NIST ThermoML archive (doi:10.1021/acs.jced.7b00344)
Numbers after ± are expanded uncertainties.

Test: xn = mol fraction of the nth substance listed
Conditions: 101.3 kPa, Liquid; for viscosity: Capillary tube (Ostwald / Ubbelohde) method; for mass density: Pycnometric method

CC(=O)CCCCl [1-chloro-4-pentanone] + CC(=O)C1CC1
Conditions	mass density, 303.15 K [kg/m3]	mass density, 313.15 K [kg/m3]	mass density, 323.15 K [kg/m3]	mass density, 333.15 K [kg/m3]	viscosity, 303.15 K [mPa·s]	viscosity, 313.15 K [mPa·s]	viscosity, 323.15 K [mPa·s]	viscosity, 333.15 K [mPa·s]
x2 = 0	1051.3 ± 1.1	1041.1 ± 1.1	1031.2 ± 1.1	1020.8 ± 1.1	1.582 ± 0.033	1.318 ± 0.028	1.078 ± 0.023	0.9667 ± 0.02
x2 = 0.0998	1039.1 ± 1.1	1029.1 ± 1.1	1019.4 ± 1.1	1009.3 ± 1.1	1.427 ± 0.03	1.21 ± 0.026	1.03 ± 0.022	0.8933 ± 0.019
x2 = 0.2009	1026.1 ± 1.1	1016.3 ± 1.1	1006.7 ± 1.1	996.8 ± 1.1	1.223 ± 0.026	1.043 ± 0.022	0.9043 ± 0.019	0.7927 ± 0.017
x2 = 0.3004	1012.5 ± 1.1	1002.9 ± 1.1	993.4 ± 1.1	983.6 ± 1.1	1.135 ± 0.024	0.9766 ± 0.021	0.8507 ± 0.018	0.7484 ± 0.016
x2 = 0.4002	998 ± 1	988.5 ± 1.1	979.1 ± 1.1	969.5 ± 1.1	1.07 ± 0.023	0.9252 ± 0.02	0.8063 ± 0.017	0.7131 ± 0.015
x2 = 0.4999	982.8 ± 1.1	973.3 ± 1.1	963.9 ± 1.1	954.4 ± 1.1	0.955 ± 0.02	0.8296 ± 0.018	0.7322 ± 0.015	0.6517 ± 0.014
x2 = 0.5999	966.5 ± 1.1	957.1 ± 1.1	947.7 ± 1.1	938.3 ± 1.1	0.8757 ± 0.018	0.7715 ± 0.016	0.6787 ± 0.014	0.6086 ± 0.013
x2 = 0.6999	948.9 ± 1.1	939.7 ± 1.1	930.4 ± 1.1	921.1 ± 1.1	0.839 ± 0.018	0.7366 ± 0.016	0.649 ± 0.014	0.5818 ± 0.012
x2 = 0.7999	930.2 ± 1.1	921 ± 1	911.7 ± 1.1	902.6 ± 1.2	0.7363 ± 0.016	0.6493 ± 0.014	0.5783 ± 0.012	0.5207 ± 0.011
x2 = 0.8999	910.5 ± 1.1	901.1 ± 1.1	891.6 ± 1.1	882.4 ± 1.2	0.7027 ± 0.015	0.6216 ± 0.013	0.5513 ± 0.012	0.4968 ± 0.011

CC(=O)C1CCOC1=O (stereo not given) [2-acetylbutyrolactone] + CC(=O)C1CC1
Conditions	mass density, 303.15 K [kg/m3]	mass density, 313.15 K [kg/m3]	mass density, 323.15 K [kg/m3]	mass density, 333.15 K [kg/m3]	viscosity, 303.15 K [mPa·s]	viscosity, 313.15 K [mPa·s]	viscosity, 323.15 K [mPa·s]	viscosity, 333.15 K [mPa·s]
x2 = 0	1185.7 ± 1.1	1178.3 ± 1.1	1168.9 ± 1.1	1159.4 ± 1.1	3.794 ± 0.079	3.424 ± 0.072	3.067 ± 0.064	2.719 ± 0.057
x2 = 0.0998	1161.9 ± 1.2	1154.3 ± 1.2	1144.9 ± 1.2	1135.6 ± 1.2	3.195 ± 0.068	2.889 ± 0.061	2.609 ± 0.055	2.33 ± 0.049
x2 = 0.2009	1136.2 ± 1.2	1128.5 ± 1.2	1119.1 ± 1.2	1109.7 ± 1.2	2.633 ± 0.056	2.369 ± 0.05	2.118 ± 0.045	1.892 ± 0.04
x2 = 0.3004	1109.7 ± 1.2	1101.8 ± 1.2	1092.3 ± 1.2	1082.9 ± 1.2	2.164 ± 0.046	1.945 ± 0.042	1.748 ± 0.037	1.571 ± 0.034
x2 = 0.4002	1081.9 ± 1.2	1073.7 ± 1.2	1064.2 ± 1.2	1054.8 ± 1.2	1.786 ± 0.038	1.599 ± 0.034	1.415 ± 0.03	1.278 ± 0.027
x2 = 0.4999	1052.8 ± 1.2	1044.3 ± 1.2	1034.8 ± 1.2	1025.4 ± 1.3	1.452 ± 0.031	1.306 ± 0.028	1.154 ± 0.025	1.025 ± 0.022
x2 = 0.5999	1022.5 ± 1.2	1013.8 ± 1.2	1004.2 ± 1.3	994.8 ± 1.3	1.198 ± 0.026	1.054 ± 0.023	0.9344 ± 0.02	0.8398 ± 0.018
x2 = 0.6999	991.1 ± 1.3	982.1 ± 1.3	972.4 ± 1.3	963.1 ± 1.3	0.9813 ± 0.021	0.8642 ± 0.019	0.778 ± 0.017	0.6958 ± 0.015
x2 = 0.7999	958.3 ± 1.3	949.2 ± 1.3	939.6 ± 1.3	930.2 ± 1.3	0.783 ± 0.017	0.6912 ± 0.015	0.639 ± 0.014	0.5704 ± 0.012
x2 = 0.8999	924.5 ± 1.3	915.5 ± 1.3	905.9 ± 1.3	896.5 ± 1.3	0.6546 ± 0.014	0.5854 ± 0.013	0.5436 ± 0.012	0.4933 ± 0.011
